Data reported in patent publication US20210115494A1, “Improved method for measurement of microbial biomass” (Mycometer A/S, priority 2018, published 2021).

Columns and labels:
[1] = tested on: NAHA activity from Penicillium crysogenum; test: NAHA activity assay, Penicillium crysogenum; format: biochemical; conditions: Penicillium chrysogenum
Procedure: (§1) In order to determine NAHA activity in different samples, the technology in WO 98/033934 was employed: A sample containing a dried or freeze dried organism is added to a buffer solution containing 4-Methylumbelliferyl N-acetyl-β-D-glucosaminide in a concentration of 20 μM. The reaction-time is varied depending on the ambient temperature and according to a reaction-time/temperature data sheet previously developed for fungal NAHA activity at various temperatures, and is 30 minutes at 23° C. The resulting fluorescence formed during the reaction time is monitored in a calibrated fluorometer.
(§2) Experiments were conducted where varying concentrations of AgNO3 was added to an analysis substrate. Furthermore, the experiments where performed on dried or freeze dried materials where both intact and fragmented cells are to be expected to be present.
(§3) Experiments analogous to those in example 1 were carried out, but instead of using non-specific inhibitors, the effect of different concentrations of DNJNAc on the NAHA activity in various biomass containing samples was investigated.

[2] = tested on: NAHA activity from Dermatophagoides pteronyssinus (Dust mite); test: NAHA activity assay, dust mite; format: biochemical; conditions: Dermatophagoides pteronyssinus (House dust mite)
Procedure: as §1, §2, §3

[3] = tested on: NAHA activity from Lepidoglyphus destructor (Storage mite); test: NAHA activity assay, storage mite; format: biochemical; conditions: Lepidoglyphus destructor (Storage mite)
Procedure: as §1, §2, §3

fungal NAHA activity = test: NAHA activity assay, fungal sources overall; format: biochemical, fungi
Procedure: as §1, §2, §3
The experiments were performed with whole cell/organism cultures rather than purified enzyme, which is normally used in experiments on specific inhibition. It is plausible, though, that the surprising non-specific inhibition effect observed for Ag^+ and Hg^+ could be due to the inhibitors being delayed in physically contacting the NAHA enzyme in the fungi when compared to other types of biomass.

CC(=O)N[C@H]1CN[C@H](CO)[C@@H](O)[C@@H]1O [DNJNAc, 2-Acetamido-1,2-dideoxynojirimycin]
NAHA activity, 0 μM DNJNAc = 100% ([1]; DNJNAc 24.5 μM): 89%
NAHA activity, 0 μM DNJNAc = 100% ([1]; DNJNAc 49 μM): 86%
NAHA activity, 0 μM DNJNAc = 100% ([1]; DNJNAc 98 μM): 74%
NAHA activity, 0 μM DNJNAc = 100% ([1]; DNJNAc 196 μM): 76%
NAHA activity, 0 μM DNJNAc = 100% ([2]; DNJNAc 24.5 μM): 5%
NAHA activity, 0 μM DNJNAc = 100% ([2]; DNJNAc 49 μM): 2%
NAHA activity, 0 μM DNJNAc = 100% ([2]; DNJNAc 98 μM): 1%
NAHA activity, 0 μM DNJNAc = 100% ([2]; DNJNAc 196 μM): 1%
NAHA activity, 0 μM DNJNAc = 100% ([3]; DNJNAc 24.5 μM): 3%
NAHA activity, 0 μM DNJNAc = 100% ([3]; DNJNAc 49 μM): 2%
NAHA activity, 0 μM DNJNAc = 100% ([3]; DNJNAc 98 μM): 1%
NAHA activity, 0 μM DNJNAc = 100% ([3]; DNJNAc 196 μM): 0%
fungal NAHA activity retained, average (fungal NAHA activity; 24.5 μM in the assay substrate): 83%
fungal NAHA activity retained, average (fungal NAHA activity; 196 μM): 60%
